Experimental data published in US9988680B2, “Non-natural nucleosides as theranostic agents” (Case Western Reserve University, priority 2011, dated 2018).
Values after ≈ are worked out from the molar mass of the structure shown.

Columns and labels:
[1] = target: terminal deoxynucleotidyl transferase (TdT) (Bos taurus, UniProt P06526); assay: Incorporation of natural and non-natural nucleotides by TdT (polymerization assay, Michaelis-Menten kinetics); format: biochemical
Procedure: All enzymatic assays were performed as previously described. […] Reactions were quenched with 200 Mm EDTA at variable times (5-600 s) and analyzed using denaturing gel electrophoresis. Time courses in product formation were fitted using eq 1: Y=mt+b(1) (1)
where y is the amount of product, m is the rate of the reaction, t is time, and b is the Y-intercept. Km and Vmax values were determined by fits of the data points to the Michaelis-Menten equation: […]
where Vmax is the maximal rate of nucleotide incorporation, Km is the Michaelis constant for dNTP, and [dNTP] is the concentration of nucleotide substrate. The IC50 value for 3-Eth-5-NITP was obtained using a nonlinear regression curve fit of the data to eq 3:
The biological function of TdT is to expand immunological diversity by randomly incorporating dNTPs into single-stranded DNA during V(D)J recombination. […] TdT also utilizes nucleotide analogues including 2′,3′-dideoxynucleotides, dinucleoside 5′,5′-tetraphosphates, and intrinsically fluorescent nucleotide analogues. In this report, we tested if TdT also incorporates indolyl-2′-deoxyribose-5′-triphosphates that bear non-natural moieties such as ethynyl and nitro groups at the 3- and 5-position, respectively, of the indole base. […] Aliquots of the reaction were quenched with EDTA at variable time points, and the polymerization reactions were then subjected to denaturing polyacrylamide gel electrophoresis to separate extended primers from unreacted substrate.
Time courses in product formation were generated using pseudo-first order reaction conditions in which 6 units of TdT were incubated with 1.5 μM DNA substrate and mixed with variable concentrations of non-natural nucleotide (0.05-50 μM). Each time course was fit to an equation for a straight line to define the rate of nucleotide incorporation (data not shown).

MOLT4 cells [2] = assay: In situ click reaction with AlexaFluor488-azide, flow cytometry, MOLT4; format: cell-based; conditions: 100 μg mL^−1, 2 days; cell line not given
Procedure: In situ “click” reactions were performed using cells harvested after 2 days of treatment with DMSO, 3-Eth-5-NIdR (10, 40, or 100 μg mL^−1), 5-NIdR (100 μg mL^−1) or 5-ethynyl-2′-deoxyuridine (EdU) (10 μM). All cells were fixed with cold methanol. Under minimal lighting, cells were treated with 0.3 mL of saponin-based permeabilization and wash buffer for 45 min at 37° C. Click reactions were initiated by adding the click-iT reaction cocktail according to the instructions of the manufacturer (Invitrogen) followed by incubation at 37° C. for 90 min. Cells were then washed two times with saponin-based permeabilization and wash buffer. Cell pellets were dislodged using 0.5 mL solution of 10 μg mL^−1 PI and RNAase A in saponin-based permeabilization and wash buffer and then incubated for at least 15 min prior to flow cytometry analysis.
MOLT4 cells were treated with DMSO, EdU (a “clickable” thymidine analogue), 5-NIdR, and 3-Eth-5-NIdR for 2 days and then washed with PBS to remove any nucleoside and/or nucleotide not incorporated into DNA. After fixation and permeabilization, the cells were treated with AlexaFluor488-azide and Cu(I) catalyst to commence “clicking” of any incorporated nonnatural nucleotide. Dual parameter flow cytometry applying PI staining coupled with detection of the AlexaFluor488 fluorophore was used to detect the “clicked” non-natural nucleotide in cellular DNA. […] This high amount of “clicked” DNA reflects transport of EdU into the cell, conversion to the corresponding nucleoside triphosphate, and incorporation into the DNA of replicating cells. MOLT4 cells treated with 10 μg mL^−1 3-Eth-5-NIdR also show appreciable levels of AlexaFluor488 stained DNA (2.8%) after 2 days of treatment. Furthermore, the amount of “clicked” DNA is dosedependent as treatment with 40 μg mL^−1 Eth-5-NIdR yields a […] increase in AlexaFluor488 staining (6.5%). Identical experiments were performed using the Loucy cell line that lacks TdT and thus is less sensitive to the cytotoxic effects of the non-natural nucleoside (vide inf ra). […] Treatment with 40 μg mL^−1 of 3-Eth-5-NIdR produces low levels of “clicked” DNA (0.02%). […] Once incorporated into DNA, the non-natural nucleotide inhibits cellular DNA replication and induces apoptosis. Finally, it should be emphasized that low levels (<0.5%) of AlexaFluor488 staining are detected in cells treated with 100 μg mL^−1 5-NIdR.

CEM-C7 cells = assay: Cell proliferation assay (trypan blue), CEM-C7; format: cell-based; conditions: CEM-C7, up to 72 h
Procedure: (§1) Cells were seeded at a population density of ˜200,000 cells mL-1 and treated with variable concentrations of non-natural nucleoside (0.1-100 μg mL-1) for up to 72 h. The final DMSO concentration in all experiments was 0.1%. Cell viability was assessed via trypan blue staining and counting the number of viable (clear) versus non-viable (blue) cells under a microscopy using a hemocytometer. The IC50 values for both nonnatural nucleosides were obtained using a nonlinear regression curve fit of the data to eq 3. LD50 values for the non-natural nucleosides were calculated using identical approaches.
(§2) Identical cell-based experiments were performed with the other ALL cell lines, and the corresponding IC50 and LD50 values for 5-NIdR and 3-Eth-5-NIdR against each cell line are summarized in Table 2. […] The increased potency of 3-Eth-5-NIdR likely reflects the higher catalytic efficiency for the corresponding nucleoside triphosphate to act as a chain-terminating substrate for TdT. […] In general, there is an excellent correlation (R^2=0.695, p<0.0001) between the anti-cancer effects of the non-natural nucleoside with TdT level. Similar analyses were performed by plotting the LD50 values of 3-Eth-5-NIdR as a function of TdT content (FIG. 3E).

Jurkat cells = assay: Cell proliferation assay (trypan blue), Jurkat; format: cell-based; conditions: up to 72 h
Procedure: as §1, §2

RS4(11) cells = assay: Cell proliferation assay (trypan blue), RS4(11); format: cell-based; conditions: up to 72 h
Procedure: as §1, §2

Loucy cells = assay: Cell proliferation assay (trypan blue), Loucy; format: cell-based
Procedure: as §1

J45.01 cells = assay: Cell proliferation assay (trypan blue), J45.01; format: cell-based; conditions: J45.01, up to 72 h
Procedure: as §1, §2

MOLT4 cells [3] = assay: Cell proliferation assay (trypan blue, viable vs non-viable cells), MOLT4; format: cell-based
Procedure: as §1
This hypothesis was tested by measuring the cytostatic and/or cytotoxic effects of the corresponding nucleoside, 3-Eth-5-NIdR, and 5-nitroindolyl-2′-deoxynucleoside (5-NIdR) against various ALL cell lines including MOLT4, CEM-C7, Jurkat, RS4(11), JS45.01, and Loucy. Western blot analyses was first performed to determine TdT levels in each ALL cell line. […] We next tested the efficacy of 5-NIdR and 3-Eth-5-NIdR by treating exponentially growing cells with variable concentrations (0.1-100 μg mL^−1) of each non-natural nucleoside for time periods of up to 3 days.

MOLT4 cells [4] = assay: Apoptosis measurement (Annexin V-Alexa Fluor 488 / propidium iodide flow cytometry); format: cell-based
Procedure: Cells were treated with DMSO (vehicle), 5-NIdR (100 μg mL-1), and 3-Eth-5-NIdR (10 and 40 μg mL-1) as described above. Cells were harvested by centrifugation and washed in phosphate-buffered saline and resuspended in 100 μL of binding buffer containing AnnexinV-Alexa Fluor 488 conjugate. Cells were treated with propidium iodide (PI) and incubated at RT for 15 min followed by flow cytometry analysis. This enables live cells (unstained with either Alexa Fluor 488 or PI) to be discriminated from early apoptotic (stained with Alexa Fluor 488), late apoptotic cells (stained with Alexa Fluor 488 and PI), and necrotic cells (stained with PI).
The mechanism by which these non-natural nucleosides induce cell death was interrogated using dual parameter FACS analyses measuring propidium iodide uptake and Alexa Fluor488 annexin V conjugate staining. This allows live cells (unstained with either fluorophore) to be distinguished from cells that are early apoptotic (annexin V staining only), late apoptotic (propidium iodide and annexin V staining), and necrotic (propidium iodide staining only). […] In this case, treatment with 100 μg mL^−1 5-NIdR causes a 5-fold increase in early and late stage apoptosis, respectively. […] The induction of apoptosis was also independently confirmed by using agarose gel electrophoresis to observe DNA cleavage sites between nucleosomes that occur in chromatin at ˜200-base pair intervals.

[5] = incorporation by TdT, 6 units TdT, 1.5 μM single-stranded DNA substrate
[6] = Loucy (TdT-negative), up to 72 h
[7] = MOLT4, 100 μg mL^−1, 2 days post-treatment
[8] = MOLT4, 100 μg mL^−1, compared to DMSO

Chain of terminal deoxynucleotidyl transferase (TdT) (P06526 whole entry): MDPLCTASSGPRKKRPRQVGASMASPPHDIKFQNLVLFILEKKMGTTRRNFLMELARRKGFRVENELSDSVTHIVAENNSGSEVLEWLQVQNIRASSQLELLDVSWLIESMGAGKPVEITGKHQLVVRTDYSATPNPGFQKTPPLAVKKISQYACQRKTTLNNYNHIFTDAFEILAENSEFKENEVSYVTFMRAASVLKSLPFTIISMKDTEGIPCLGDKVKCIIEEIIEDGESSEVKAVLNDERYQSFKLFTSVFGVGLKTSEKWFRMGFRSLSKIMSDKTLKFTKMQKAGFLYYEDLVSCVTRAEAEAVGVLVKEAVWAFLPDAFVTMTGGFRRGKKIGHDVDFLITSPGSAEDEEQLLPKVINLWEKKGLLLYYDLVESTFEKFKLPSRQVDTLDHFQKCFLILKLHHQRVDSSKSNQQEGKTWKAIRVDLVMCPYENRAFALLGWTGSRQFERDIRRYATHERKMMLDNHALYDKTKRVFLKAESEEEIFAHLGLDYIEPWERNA

## O=[N+]([O-])c1ccc2c(ccn2C2CC(O)C(COP(=O)(O)OP(=O)(O)OP(=O)(O)O)O2)c1 (stereo not shown) [5-NITP]
[1]; 100 μM nucleotide, 6 units TdT, 1.5 μM 14-mer (FIG. 2B)
  utilization by TdT (elongation of 14-mer DNA substrate): utilized by TdT as efficiently as the natural purines
[1]; 100 μM nucleotide, 14-mer DNA, gel (FIG. 2B)
  extension by TdT beyond the incorporated nucleotide: rivals that of the natural purines
[1]; [5]
  Km: 4.6 ± 0.6 µM
  Vmax: 11.5 ± 0.4 nM/s

## O=[N+]([O-])c1ccc2c(ccn2[C@H]2C[C@H](O)[C@@H](CO)O2)c1 [5-NIdR, 5-nitroindolyl-2′-deoxynucleoside, reference compound]
MOLT4 cells [2]
  AlexaFluor488 staining: < 0.5%
CEM-C7 cells
  IC50: ~100 µg/mL (≈ 359 µM)
  LD50: >>100 μg mL^−1
Jurkat cells
  IC50: ~100 µg/mL (≈ 359 µM)
  LD50: >>100 μg mL^−1
RS4(11) cells
  IC50: >100 µg/mL
  LD50: >>100 μg mL^−1
Loucy cells; [6]
  IC50: >>100 μg mL^−1
  LD50: >>100 μg mL^−1
Loucy cells; Loucy, 100 μg mL^−1
  increase in the number of non-viable cells: does not cause a substantial increase
  reduction in the number of viable cells: < 25%
J45.01 cells
  IC50: ~100 µg/mL (≈ 359 µM)
  LD50: >>100 μg mL^−1
MOLT4 cells [3]; [7]
  increase in the number of non-viable cells: 2.5 fold
  reduction in the number of viable cells: ~5 fold
MOLT4 cells [3]; MOLT4, up to 72 h
  IC50: 34 ± 6 µg/mL (≈ 122 µM)
  LD50: ~100 µg/mL
MOLT4 cells [4]; MOLT4
  PI uptake (necrotic cell death): no significant PI uptake
MOLT4 cells [4]; MOLT4, 100 μg mL^−1
  Early apoptoic cells (%): 26.5 ± 3.7%
  Late apoptoic cells (%): 18.9 ± 3.4%
  Necrotic cells (%): 1.5 ± 0.5%
  Viable cells (%): 53.1 ± 6.7%
MOLT4 cells [4]; [8]
  increase in early stage apoptosis: 5 fold
  increase in late stage apoptosis: 5 fold
